Measured values published in publication PMC6695626, “Detection of Osmotic Shock-Induced Extracellular Nucleotide Release with a Genetically Encoded Fluorescent Sensor of ADP and ATP” (Sensors (Basel, Switzerland), 2019).

Molecular target: T1, ADP sensor (mTFP1-ParM-mVenus cp157 terminal fusion; ADPrime sensor, soluble form) (Escherichia coli, UniProt P11904, C287A/K33A/T174A/T175N)
T1 construct: ParM flanked by FRET reporters: wild-type mTFP1 via SGITS linker at N-terminus, mVenus-cp157 via AAA linker at C-terminus; expressed in E. coli DH5alpha
T1 sequence (P11904 1-320 K33A/T174A/T175N/C287A): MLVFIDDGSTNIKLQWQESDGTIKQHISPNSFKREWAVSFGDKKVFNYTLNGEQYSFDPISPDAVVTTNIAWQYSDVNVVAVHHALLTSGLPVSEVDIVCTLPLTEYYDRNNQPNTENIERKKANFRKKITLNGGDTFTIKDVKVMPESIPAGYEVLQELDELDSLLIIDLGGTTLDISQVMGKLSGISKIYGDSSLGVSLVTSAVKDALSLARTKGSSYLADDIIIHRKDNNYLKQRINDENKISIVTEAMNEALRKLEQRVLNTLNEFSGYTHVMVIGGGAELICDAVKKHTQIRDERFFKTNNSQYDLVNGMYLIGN
Assay: FRET ratio (mTFP1/mVenus) dose response, Hill fit
Type: binding
Settings: read-out: apparent Kd

Nc1ncnc2c1ncn2[C@@H]1O[C@H](COP(=O)(O)OP(=O)(O)O)[C@@H](O)[C@H]1O [ADP]
Kd: 0.16 ± 0.06 µM

Nc1ncnc2c1ncn2[C@@H]1O[C@H](COP(=O)(O)OP(=O)(O)OP(=O)(O)O)[C@@H](O)[C@H]1O [ATP]
Kd: 9.9 ± 6.3 µM
